# Experimental data taken from patent US10023528B2, “Branched 3-phenylpropionic acid derivatives and their use” (BAYER INTELLECTUAL PROPERTY GMBH, priority 2011, dated 2018).
# How the values were obtained:
# [1] = target: recombinant soluble guanylate cyclase (sGC), haem-containing (Rattus norvegicus (Rat), UniProt P20595); experiment: Stimulation of recombinant soluble guanylate cyclase (sGC) in vitro, haem-containing enzyme; type: biochemical; details: for Stimulation (x-fold) of haem-containing sGC, basal: n = 5
# From the text: Hoenicka, E. M. Becker, H. Apeler, T. Sirichoke. H. Schroeder, R. Gerzer and J.-P. Stasch, “Purified soluble guanylyl cyclase expressed in a baculovirus/Sf9 system: Stimulation by YC-1, nitric oxide, and […]”, J. Mol. Med. 77 (1999), 14-23. The haem-free guanylate cyclase is obtained by adding Tween 20 to the sample buffer (0.5% in the final concentration).
# (§1) The activation of sGC by a test substance is reported as x-fold stimulation of the basal activity.
# [2] = target: recombinant soluble guanylate cyclase (sGC), haem-free (Rattus norvegicus (Rat), UniProt P20595); experiment: Stimulation of recombinant soluble guanylate cyclase (sGC) in vitro, haem-free enzyme; type: biochemical; details: n = 5
# Experimental: Investigations on the stimulation of recombinant soluble guanylate cyclase (sGC) by the compounds according to the invention with and without sodium nitroprusside, and with and without the haem-dependent sGC inhibitor 1H-1,2,4-oxadiazolo[4,3a]quinoxalin-1-one (ODQ), are carried out by the method described in detail in the following reference: M. Hoenicka, E. M. Becker, H. Apeler, T. Sirichoke. H. Schroeder, R. Gerzer and J.-P. Stasch, “Purified soluble guanylyl cyclase expressed in a baculovirus/Sf9 system: Stimulation by YC-1, nitric oxide, and […]”, J. Mol. Med. 77 (1999), 14-23. The haem-free guanylate cyclase is obtained by adding Tween 20 to the sample buffer (0.5% in the final concentration).
# as §1
# [3] = test system: recombinant guanylate cyclase reporter cell line (CHO reporter cell); experiment: Action at a recombinant guanylate cyclase reporter cell line; type: cell-based; details: CHO reporter cell in vitro; read-out: MEC (minimum effective concentration), sGC-activating activity in the CHO reporter cell
# Experimental: The cellular action of the compounds according to the invention is determined at a recombinant guanylate cyclase reporter cell line, as described in F. Wunder et al., Anal. Biochem. 339, 104-112 (2005).
# [4] = target: soluble guanylate cyclase (sGC) (Rattus norvegicus (Rat), UniProt P20595); experiment: Stimulation of sGC enzyme activity (PPi detection, luciferase); type: biochemical; details: sGC enzyme in vitro
# Experimental: Soluble guanylate cyclase (sGC) converts on stimulation GTP into cGMP and pyrophosphate (PPi). PPi is detected with the aid of the assay described below. The signal produced in the assay increases as the reaction progresses and serves as a measure of the sGC enzyme activity under the given stimulation.
# To carry out the assay, 29 μl of enzyme solution [0-10 nM soluble guanylate cyclase (prepared according to Hönicka et al, J. Mol. Med. 77, 14-23 (1999)) in 50 mM TEA, 2 mM MgC2, 0.1% BSA (fraction V), 0.005% Brij®, pH 7.5] are initially introduced into a microplate, and 1 μl of the substance to be tested (as a serially diluted solution in DMSO) is added. The mixture is incubated at room temperature for 10 min. Then 20 μl of detection mix [1.2 nM Firefly Luciferase (Photinus pyralis luciferase, Promega), 29 μM dehydroluciferin (prepared according to Bitler & McElroy, Arch. Biochem. Biophys. 72, 358 (1957)), 122 μM luciferin (Promega), 153 μM ATP (Sigma) and 0.4 mM DTT (Sigma) in 50 mM TEA, 2 mM MgCl2, 0.1% BSA (fraction V), 0.005% Brij®, pH 7.5] are added. The enzyme reaction is started by adding 20 μl of substrate solution [1.25 mM guanosine 5′-triphosphate (Sigma) in 50 mM TEA, 2 mM MgC2, 0.1% BSA (fraction V), 0.005% Brij®, pH 7.5] and measured continuously in a luminometer. The extent of the stimulation by the substance to be tested can be determined relative to the signal of the unstimulated reaction.
# The activation of haem-free guanylate cyclase is examined by addition of 25 μM of 1H-1,2,4-oxadiazolo[4,3-a]quinoxalin-1-one (ODQ) to the enzyme solution and subsequent incubation for 30 minutes and compared to the stimulation of the native enzyme.
# [5] = test system: saphenous artery rings; experiment: Vasorelaxant effect in vitro (phenylephrine-contracted saphenous artery rings); type: cell-based; details: Oryctolagus cuniculus; rabbit saphenous artery rings, phenylephrine-induced contraction
# Experimental: Rabbits are anaesthetized and sacrificed by intravenous injection of thiopental sodium (about 50 mg/kg) and exsanguinated. The saphenous artery is removed and divided into rings 3 mm wide. The rings are mounted singly on in each case a pair of triangular hooks open at the end and made of 0.3 mm-thick special wire (Remanium®). Each ring is placed under an initial tension in 5 ml organ baths with Krebs-Henseleit solution which is at 37° C., is gassed with carbogen and has the following composition: NaCl 119 mM; KCl 4.8 mM; CaCl2×2 H2O 1 mM; MgSO4×7 H2O 1.4 mM; KH2PO4 1.2 mM; NaHCO3 25 mM; glucose 10 mM; bovine serum albumin 0.001%. The force of contraction is detected with Statham UC2 cells, amplified and digitized via A/D converters (DAS-1802 HC, Keithley Instruments, Munich) and recorded in parallel on chart recorders. Contractions are induced by addition of phenylephrine.
# After several (generally 4) control cycles, the substance to be investigated is added in each further run in increasing dosage, and the level of the contraction achieved under the influence of the test substance is compared with the level of the contraction reached in the last preceding run. The concentration necessary to reduce the contraction reached in the preceding control by 50% is calculated from this (IC50). The standard application volume is 5 μl. The proportion of DMSO in the bath solution corresponds to 0.1%.
# Chain of recombinant soluble guanylate cyclase (sGC), haem-containing (P20595 whole entry): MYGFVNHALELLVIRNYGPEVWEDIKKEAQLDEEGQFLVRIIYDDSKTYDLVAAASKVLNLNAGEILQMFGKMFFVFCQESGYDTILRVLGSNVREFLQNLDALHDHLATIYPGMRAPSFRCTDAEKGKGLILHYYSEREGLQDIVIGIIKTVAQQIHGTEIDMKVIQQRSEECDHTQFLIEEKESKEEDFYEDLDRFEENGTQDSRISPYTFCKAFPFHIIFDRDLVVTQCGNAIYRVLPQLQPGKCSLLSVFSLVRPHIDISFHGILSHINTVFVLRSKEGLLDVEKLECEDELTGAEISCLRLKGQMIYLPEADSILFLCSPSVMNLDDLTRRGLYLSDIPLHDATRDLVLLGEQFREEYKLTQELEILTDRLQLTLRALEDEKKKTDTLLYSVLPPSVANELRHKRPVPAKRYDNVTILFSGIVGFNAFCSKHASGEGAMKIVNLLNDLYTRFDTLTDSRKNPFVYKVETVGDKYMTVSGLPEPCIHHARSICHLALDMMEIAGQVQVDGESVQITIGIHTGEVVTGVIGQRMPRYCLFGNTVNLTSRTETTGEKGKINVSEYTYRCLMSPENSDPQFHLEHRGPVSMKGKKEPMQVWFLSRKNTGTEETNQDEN
# Chain of recombinant soluble guanylate cyclase (sGC), haem-containing (P19686 whole entry partner): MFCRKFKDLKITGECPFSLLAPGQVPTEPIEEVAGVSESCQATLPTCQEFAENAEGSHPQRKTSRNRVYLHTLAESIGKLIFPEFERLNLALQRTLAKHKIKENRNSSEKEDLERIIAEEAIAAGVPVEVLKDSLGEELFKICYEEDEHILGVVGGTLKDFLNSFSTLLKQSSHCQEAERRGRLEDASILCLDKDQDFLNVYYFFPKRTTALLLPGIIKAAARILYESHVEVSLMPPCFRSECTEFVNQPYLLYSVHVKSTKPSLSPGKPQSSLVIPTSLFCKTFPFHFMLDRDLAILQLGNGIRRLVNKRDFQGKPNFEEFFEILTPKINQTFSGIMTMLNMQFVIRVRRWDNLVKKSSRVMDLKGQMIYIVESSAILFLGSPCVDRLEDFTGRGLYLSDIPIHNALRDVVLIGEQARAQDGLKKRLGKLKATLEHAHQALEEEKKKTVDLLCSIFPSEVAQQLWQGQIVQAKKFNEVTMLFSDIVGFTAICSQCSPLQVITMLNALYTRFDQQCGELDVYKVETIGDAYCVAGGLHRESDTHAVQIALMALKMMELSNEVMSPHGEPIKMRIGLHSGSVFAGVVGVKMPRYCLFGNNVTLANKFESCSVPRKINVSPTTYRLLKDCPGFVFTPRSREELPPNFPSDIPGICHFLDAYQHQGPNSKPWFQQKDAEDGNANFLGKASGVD
# Chain of recombinant soluble guanylate cyclase (sGC), haem-free (P20595 whole entry): as the sequence (P20595 whole entry) above
# Chain of recombinant soluble guanylate cyclase (sGC), haem-free (P19686 whole entry partner): as the sequence (P19686 whole entry partner) above
# Chain of soluble guanylate cyclase (sGC) (P20595 whole entry): as the sequence (P20595 whole entry) above
# Chain of soluble guanylate cyclase (sGC) (P19686 whole entry partner): as the sequence (P19686 whole entry partner) above
smiles,measurement,setting,value
"C[C@H]([C@H](C(=O)Nc1cc(C(CC(=O)O)C2CC2)ccc1Cl)c1ccc(Cl)cc1)C(F)(F)F (single isomer, unassigned; (+)) [Example 22]","Stimulation (x-fold) of haem-containing sGC, +0.01 μM DEA/NO",[1]; 0.01 μM Example 22 + 0.01 μM DEA/NO,4.4 ± 1.3 x-fold
same,"Stimulation (x-fold) of haem-containing sGC, +10 μM ODQ",[1]; 0.01 μM Example 22 + 10 μM ODQ,5.7 ± 1.6 x-fold
same,"Stimulation (x-fold) of haem-containing sGC, basal",[1]; 0.01 μM Example 22,1.6 ± 0.3 x-fold
same,"Stimulation (x-fold) of haem-containing sGC, +0.01 μM DEA/NO",[1]; 0.1 μM Example 22 + 0.01 μM DEA/NO,3.4 ± 0.9 x-fold
same,"Stimulation (x-fold) of haem-containing sGC, +10 μM ODQ",[1]; 0.1 μM Example 22 + 10 μM ODQ,6.1 ± 1.7 x-fold
same,"Stimulation (x-fold) of haem-containing sGC, basal",[1]; 0.1 μM Example 22,1.6 ± 0.5 x-fold
same,"Stimulation (x-fold) of haem-containing sGC, +0.01 μM DEA/NO",[1]; 1.0 μM Example 22 + 0.01 μM DEA/NO,4.4 ± 1.4 x-fold
same,"Stimulation (x-fold) of haem-containing sGC, +10 μM ODQ",[1]; 1.0 μM Example 22 + 10 μM ODQ,8.4 ± 2.2 x-fold
same,"Stimulation (x-fold) of haem-containing sGC, basal",[1]; 1.0 μM Example 22,2.4 ± 1.0 x-fold
same,"Stimulation (x-fold) of haem-containing sGC, +0.01 μM DEA/NO",[1]; 10 μM Example 22 + 0.01 μM DEA/NO,7.8 ± 2.5 x-fold
same,"Stimulation (x-fold) of haem-containing sGC, +10 μM ODQ",[1]; 10 μM Example 22 + 10 μM ODQ,18.3 ± 5.4 x-fold
same,"Stimulation (x-fold) of haem-containing sGC, basal",[1]; 10 μM Example 22,4.9 ± 1.2 x-fold
same,Combination with the NO donor DEA/NO: synergistic effect on sGC stimulation,"[1]; haem-containing sGC, combination with DEA/NO",no synergistic effect
same,Effect of the haem-dependent sGC inhibitor ODQ on the sGC activation,"[1]; haem-containing sGC, with ODQ",not blocked
same,"Stimulation (x-fold) of haem-free sGC, basal",[2]; 0.01 μM Example 22,1.2 ± 0.1 x-fold
same,"Stimulation (x-fold) of haem-free sGC, basal",[2]; 0.1 μM Example 22,1.6 ± 0.5 x-fold
same,"Stimulation (x-fold) of haem-free sGC, basal",[2]; 1.0 μM Example 22,4.9 ± 1.5 x-fold
same,"Stimulation (x-fold) of haem-free sGC, basal",[2]; 10 μM Example 22,14.2 ± 2.0 x-fold
same,minimal effective concentration,[3],0.0018 µM
same,"MEC (minimum effective concentration), activating action at the sGC enzyme",[4],2.4 nM
same,EC50,"[4]; read-out: EC50 (concentration at 50% of maximum efficacy), activating action at the sGC enzyme",68 nM
same,IC50,[5],137 nM
